# Assays:
# CCRF-CEM = test: Inhibition of cell proliferation (MTT); assay type: cell-based, human; settings: Leukemia
# Description: (§1) Inhibition of cell proliferation is determined in human tumor cell lines. Innoculation density and doubling times for specific cell lines are listed at World Wide Web URL “dtp.nci.nih.gov/docs/misc/common_files/cell_list.html.”
# (§2) • 1. Plate adherent cells the day before starting the experiment in 180 μl growth media (see list hereafter). • 2. Day of experiment, count and plate suspension cells in 180 μl growth media (see list on next page). • 3. Make 10× Compound, vehicle, and chemotherapeutic cocktail • a. Compound (1× to 10×) • i. 10 μM Compound to 100 μM • ii. 3 μM Compound to 30 μM • iii. 1 μM Compound to 10 μM • iv. 0.3 μM Compound to 3 μM • v. 0.1 μM Compound to 1 μM • b. Vehicle • i. PBS, equivalent to the volume used for 10 μM Compound (1× is ˜0.06% PBS) • c. Chemotherapeutic cocktail (1× to 10×): • i. 1 μM Velcade to 10 μM • ii. 100 μM Etoposide to 1 mM • iii. 20 μM Taxol to 200 μM • 4. Add 20 μl of the 10× compound/vehicle/chemotherapeutic cocktail to cells. • 5. Incubate at 37° C., 5% CO2 for 48 hours. • 6. Aspirate media. For suspension cells, spin plate at 1500 RPM for 10 minutes. Use a multichannel pipettor to slowly remove media. • 7. Add 200 μl of Thiazolyl Blue Tetrazolium Bromide (MTT) to each well: 0.863 mg/ml MTT in growth media.
# (§3) Proliferation of several cancer cells was inhibited by compound TA1-1B (which is a particular mixture of the isomers represented by TA1-1A), as shown in the following table (Table 1). The value EC50 is the amount of Compound TA1-1B that results in 50% inhibition of proliferation of the indicated cell type.
# HOP-92 = test: Inhibition of cell proliferation (MTT); assay type: cell-based, human; settings: HOP-92, Non Small Cell Lung
# Description: as §1, §2, §3
# SR = test: Inhibition of cell proliferation (MTT); assay type: cell-based, human; settings: Leukemia
# Description: as §1, §2, §3
# Neurokinin NK2 receptor = Neurokinin NK2 receptor (Homo sapiens, UniProt P21452); test: Receptor binding
# Sequence of Neurokinin NK2 receptor (P21452 whole entry): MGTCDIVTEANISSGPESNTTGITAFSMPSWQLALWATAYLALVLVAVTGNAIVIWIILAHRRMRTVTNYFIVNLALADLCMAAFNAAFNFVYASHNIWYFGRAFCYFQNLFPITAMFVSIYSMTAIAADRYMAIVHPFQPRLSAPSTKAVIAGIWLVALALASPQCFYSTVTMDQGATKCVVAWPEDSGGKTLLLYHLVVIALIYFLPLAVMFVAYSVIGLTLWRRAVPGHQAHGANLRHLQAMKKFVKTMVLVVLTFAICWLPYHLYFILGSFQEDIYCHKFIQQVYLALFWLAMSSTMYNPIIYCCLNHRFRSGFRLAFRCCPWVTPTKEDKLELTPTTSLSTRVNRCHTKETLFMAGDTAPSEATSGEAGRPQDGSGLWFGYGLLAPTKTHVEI
# [1] = tested on: σ (non-selective) sigma receptors; test: Receptor binding
# [2] = tested on: BZD (peripheral) peripheral Benzodiazepine receptor; test: Receptor binding
# [3] = target: CCKA/CCK1 Cholecystokinin receptor (Homo sapiens, UniProt P32238); test: Receptor binding
# Sequence of CCKA/CCK1 Cholecystokinin receptor (P32238 whole entry): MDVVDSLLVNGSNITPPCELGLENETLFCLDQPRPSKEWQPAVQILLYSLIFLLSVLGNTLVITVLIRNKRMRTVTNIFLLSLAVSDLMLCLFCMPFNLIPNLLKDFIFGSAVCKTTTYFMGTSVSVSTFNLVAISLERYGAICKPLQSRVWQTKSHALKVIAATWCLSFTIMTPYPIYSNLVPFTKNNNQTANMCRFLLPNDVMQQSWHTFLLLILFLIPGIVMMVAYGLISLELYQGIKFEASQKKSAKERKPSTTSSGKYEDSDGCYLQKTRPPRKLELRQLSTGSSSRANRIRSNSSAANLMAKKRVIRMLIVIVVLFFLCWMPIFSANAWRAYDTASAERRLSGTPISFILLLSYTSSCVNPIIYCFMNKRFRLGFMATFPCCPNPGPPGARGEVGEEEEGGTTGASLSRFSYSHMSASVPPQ
# Description: (§4) The binding IC50, functional effect, and functional EC50 of TA1-1B on exemplary receptors was determined.
# SST1 = SST1 (Homo sapiens, UniProt P30872); test: Receptor binding
# Sequence of SST1 (P30872 whole entry, species assumed): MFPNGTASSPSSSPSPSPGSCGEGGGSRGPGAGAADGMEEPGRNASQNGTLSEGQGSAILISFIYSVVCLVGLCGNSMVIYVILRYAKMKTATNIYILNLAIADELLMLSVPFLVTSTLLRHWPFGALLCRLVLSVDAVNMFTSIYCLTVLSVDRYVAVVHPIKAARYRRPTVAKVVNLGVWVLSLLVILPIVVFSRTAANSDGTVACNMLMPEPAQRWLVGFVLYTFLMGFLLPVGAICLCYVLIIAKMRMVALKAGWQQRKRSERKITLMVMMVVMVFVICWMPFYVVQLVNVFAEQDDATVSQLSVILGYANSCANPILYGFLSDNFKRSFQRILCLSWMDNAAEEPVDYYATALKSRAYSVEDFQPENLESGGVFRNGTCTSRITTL
# Description: as §4
# SST4 = SST4 (Homo sapiens, UniProt P31391); test: Receptor binding
# Sequence of SST4 (P31391 whole entry, species assumed): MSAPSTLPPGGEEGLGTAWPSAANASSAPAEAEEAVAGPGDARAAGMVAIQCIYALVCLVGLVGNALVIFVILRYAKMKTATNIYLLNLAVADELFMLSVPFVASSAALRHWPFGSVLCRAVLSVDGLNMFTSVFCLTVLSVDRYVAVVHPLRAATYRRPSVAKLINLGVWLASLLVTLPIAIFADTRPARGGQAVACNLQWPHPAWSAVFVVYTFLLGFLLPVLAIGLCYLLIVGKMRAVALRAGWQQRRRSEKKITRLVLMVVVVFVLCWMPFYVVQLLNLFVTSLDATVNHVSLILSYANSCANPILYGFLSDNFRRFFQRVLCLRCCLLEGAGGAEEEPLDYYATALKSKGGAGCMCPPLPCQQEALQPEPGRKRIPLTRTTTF
# Description: as §4
# SST5 = SST5 (Homo sapiens, UniProt P35346); test: Receptor binding
# Sequence of SST5 (P35346 whole entry, species assumed): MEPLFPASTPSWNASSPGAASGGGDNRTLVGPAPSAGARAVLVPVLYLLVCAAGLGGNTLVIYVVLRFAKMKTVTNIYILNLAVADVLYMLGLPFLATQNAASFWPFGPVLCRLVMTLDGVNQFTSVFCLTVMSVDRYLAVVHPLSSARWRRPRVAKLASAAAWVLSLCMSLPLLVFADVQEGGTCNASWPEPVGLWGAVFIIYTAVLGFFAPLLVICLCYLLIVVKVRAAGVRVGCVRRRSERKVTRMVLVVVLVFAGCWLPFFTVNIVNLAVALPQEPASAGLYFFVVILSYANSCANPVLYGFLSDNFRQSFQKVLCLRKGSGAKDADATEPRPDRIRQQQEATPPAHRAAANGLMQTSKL
# Description: as §4
# Adenosine A2A receptors = Adenosine A2A receptors (Homo sapiens, UniProt P29274); test: Receptor binding
# Sequence of Adenosine A2A receptors (P29274 whole entry): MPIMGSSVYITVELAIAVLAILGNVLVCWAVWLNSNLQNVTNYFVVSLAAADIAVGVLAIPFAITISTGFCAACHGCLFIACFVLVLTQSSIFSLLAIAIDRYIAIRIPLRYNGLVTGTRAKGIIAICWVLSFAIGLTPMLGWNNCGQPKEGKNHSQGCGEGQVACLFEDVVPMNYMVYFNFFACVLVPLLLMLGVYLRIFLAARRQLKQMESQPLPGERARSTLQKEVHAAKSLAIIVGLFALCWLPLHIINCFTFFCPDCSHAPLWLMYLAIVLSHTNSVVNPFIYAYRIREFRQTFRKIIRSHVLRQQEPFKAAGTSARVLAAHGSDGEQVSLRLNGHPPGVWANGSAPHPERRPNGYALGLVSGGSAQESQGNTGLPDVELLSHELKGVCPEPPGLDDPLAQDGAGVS
# [4] = tested on: 5-HT1B 5-hydroxytryptamine (serotonin) receptor 1B; test: Receptor binding
# CCK2/CCKB = target: T1, CCK2/CCKB (Homo sapiens, UniProt P32239); test: Receptor functional assay; assay type: biochemical
# T1 sequence (P32239 1-447): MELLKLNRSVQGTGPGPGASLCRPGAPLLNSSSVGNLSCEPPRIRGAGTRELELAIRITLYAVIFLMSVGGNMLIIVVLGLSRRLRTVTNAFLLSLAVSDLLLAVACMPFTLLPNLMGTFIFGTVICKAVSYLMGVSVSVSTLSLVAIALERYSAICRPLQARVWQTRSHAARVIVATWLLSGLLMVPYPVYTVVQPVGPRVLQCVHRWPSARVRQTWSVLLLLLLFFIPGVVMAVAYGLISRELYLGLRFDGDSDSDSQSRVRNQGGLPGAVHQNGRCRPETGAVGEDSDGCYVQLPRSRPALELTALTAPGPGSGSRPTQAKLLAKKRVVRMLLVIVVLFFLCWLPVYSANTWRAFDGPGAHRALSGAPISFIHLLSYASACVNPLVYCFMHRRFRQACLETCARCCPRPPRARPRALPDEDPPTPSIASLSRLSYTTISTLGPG
# Description: as §4
smiles,measurement,setting,value
CN1CCC[C@H]1CCNC(=O)c1cn2c3c(c(N4CCC(c5cnccn5)C4)c(F)cc3c1=O)Oc1cc3ccccc3cc1-2 (stereo partly shown) [TA1-1B],EC50,"CCRF-CEM; Homo sapiens, 48 h",630 nM
same,EC50,CCRF-CEM; 48 hours,1220 nM
same,EC50,HOP-92; 48 hours,1960 nM
same,EC50,"HOP-92; Homo sapiens, HOP-92, 48 h",1800 nM
same,EC50,"SR; Homo sapiens, 48 h",914 nM
same,EC50,SR; 48 hours,1300 nM
same,inhibition at 1 µM,Neurokinin NK2 receptor,107%
same,% inhibition @ 1 uM,[1],67%
same,% inhibition @ 1 uM,[2],65%
same,IC50,[3]; CCK1/CCKA,640 nM
same,inhibition at 1 µM,"[3]; CCKA/CCK1, 1 uM",64%
same,IC50,SST1,2800 nM
same,IC50,SST4,> 10000 nM
same,IC50,SST5,> 10000 nM
same,inhibition at 1 µM,Adenosine A2A receptors,60%
same,% inhibition @ 1 uM,[4],49%
same,EC50,CCK2/CCKB; antagonist,9000 nM
same,Kb,CCK2/CCKB; antagonist,400 nM
same,Functional Effect,CCK2/CCKB; response noted at 10 μM,Antagonist

# Source: patent US20080318938A1, “METHODS FOR TREATING ABERRANT CELL PROLIFERATION DISORDERS” (priority 2007, published 2008)
